Laboratory results from PubChem BioAssay (NCI).
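Growth conditions: 96-well plates. Treatment: test compound, 48 hours, 5 concentrations. Analysis: linear interpolation between bracketing concentrations; unreached endpoints set to highest concentration. GI50 is the concentration that inhibits growth by half. TGI: total growth inhibition.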

Tests used:
Test in all cases: NCI-60 cell line screen, 48 h
PC-3 prostate = test system: PC-3 prostate
RPMI-8226 leukemia = test system: RPMI-8226 leukemia
M14 melanoma = test system: M14 melanoma
NCI-H226 lung = test system: NCI-H226 lung
A549 NSCLC = test system: A549 NSCLC
NCI-H522 lung = test system: NCI-H522 lung
DU-145 prostate = test system: DU-145 prostate
BT-549 breast = test system: BT-549 breast
TK-10 renal = test system: TK-10 renal
UACC-62 melanoma = test system: UACC-62 melanoma
U251 CNS = test system: U251 CNS
SK-MEL-5 melanoma = test system: SK-MEL-5 melanoma
EKVX NSCLC = test system: EKVX NSCLC
HS 578T breast = test system: HS 578T breast
SK-OV-3 ovarian = test system: SK-OV-3 ovarian
MDA-MB-231 breast = test system: MDA-MB-231 breast
K-562 leukemia = test system: K-562 leukemia
NCI-H460 lung = test system: NCI-H460 lung
SF-295 CNS = test system: SF-295 CNS
RXF 393 renal = test system: RXF 393 renal
HCT-116 colon = test system: HCT-116 colon
SK-MEL-2 melanoma = test system: SK-MEL-2 melanoma
NCI-H23 lung = test system: NCI-H23 lung
SW-620 colon = test system: SW-620 colon
OVCAR-3 ovarian = test system: OVCAR-3 ovarian
HCT-15 colon = test system: HCT-15 colon
HOP-92 NSCLC = test system: HOP-92 NSCLC
MCF7 breast = test system: MCF7 breast
SN12C renal = test system: SN12C renal
OVCAR-4 ovarian = test system: OVCAR-4 ovarian
NCI/ADR-RES ovarian = test system: NCI/ADR-RES ovarian
OVCAR-5 ovarian = test system: OVCAR-5 ovarian
ACHN renal = test system: ACHN renal
CAKI-1 renal = test system: CAKI-1 renal
T-47D breast = test system: T-47D breast
A498 renal = test system: A498 renal
OVCAR-8 ovarian = test system: OVCAR-8 ovarian
LOX IMVI melanoma = test system: LOX IMVI melanoma
UO-31 renal = test system: UO-31 renal
MDA-MB-435 = test system: MDA-MB-435
MOLT-4 leukemia = test system: MOLT-4 leukemia
IGROV1 ovarian = test system: IGROV1 ovarian
SNB-75 CNS = test system: SNB-75 CNS
SF-539 CNS = test system: SF-539 CNS
CCRF-CEM leukemia = test system: CCRF-CEM leukemia
HT29 colon = test system: HT29 colon
SK-MEL-28 melanoma = test system: SK-MEL-28 melanoma
SF-268 CNS = test system: SF-268 CNS
HOP-62 NSCLC = test system: HOP-62 NSCLC
COLO 205 colon = test system: COLO 205 colon
KM12 colon = test system: KM12 colon
786-0 renal = test system: 786-0 renal
MALME-3M melanoma = test system: MALME-3M melanoma
UACC-257 melanoma = test system: UACC-257 melanoma
SNB-19 CNS = test system: SNB-19 CNS
HCC-2998 colon = test system: HCC-2998 colon

O=C1CC/C(=C/COc2cc(=O)oc3ccccc23)O1
GI50 (PC-3 prostate): 5.23 µM
TGI (PC-3 prostate): 23.9 µM
GI50 (RPMI-8226 leukemia): 2020 nM
TGI (RPMI-8226 leukemia): 8.07 µM
GI50 (M14 melanoma): 2480 nM
TGI (M14 melanoma): 13 µM
GI50 (NCI-H226 lung): 17.9 µM
TGI (NCI-H226 lung): 73.5 µM
GI50 (A549 NSCLC): 16.4 µM
TGI (A549 NSCLC): 30.8 µM
GI50 (NCI-H522 lung): 1730 nM
TGI (NCI-H522 lung): 4.36 µM
GI50 (DU-145 prostate): 4.32 µM
TGI (DU-145 prostate): 17.6 µM
GI50 (BT-549 breast): 11.5 µM
TGI (BT-549 breast): 24.7 µM
GI50 (TK-10 renal): 2730 nM
TGI (TK-10 renal): 10.5 µM
GI50 (UACC-62 melanoma): 12.2 µM
TGI (UACC-62 melanoma): 25.1 µM
GI50 (U251 CNS): 11 µM
TGI (U251 CNS): 23.4 µM
GI50 (SK-MEL-5 melanoma): 16.8 µM
TGI (SK-MEL-5 melanoma): 33.1 µM
GI50 (EKVX NSCLC): 17.9 µM
TGI (EKVX NSCLC): 40.1 µM
GI50 (HS 578T breast): 10.5 µM
TGI (HS 578T breast): 57.4 µM
GI50 (SK-OV-3 ovarian): 22.9 µM
TGI (SK-OV-3 ovarian): > 100 µM
GI50 (MDA-MB-231 breast): 11.5 µM
TGI (MDA-MB-231 breast): 24.4 µM
GI50 (K-562 leukemia): 19.3 µM
TGI (K-562 leukemia): 95.2 µM
GI50 (NCI-H460 lung): 17.5 µM
TGI (NCI-H460 lung): 47.2 µM
GI50 (SF-295 CNS): 14.8 µM
TGI (SF-295 CNS): 40.6 µM
GI50 (RXF 393 renal): 6.9 µM
TGI (RXF 393 renal): 21 µM
GI50 (HCT-116 colon): 6.95 µM
TGI (HCT-116 colon): 19.7 µM
GI50 (SK-MEL-2 melanoma): 6.78 µM
TGI (SK-MEL-2 melanoma): 37.1 µM
GI50 (NCI-H23 lung): 12.8 µM
TGI (NCI-H23 lung): 26.8 µM
GI50 (SW-620 colon): 4.37 µM
TGI (SW-620 colon): 18.2 µM
GI50 (OVCAR-3 ovarian): 5.41 µM
TGI (OVCAR-3 ovarian): 21.1 µM
GI50 (HCT-15 colon): 5.28 µM
TGI (HCT-15 colon): 18.4 µM
GI50 (HOP-92 NSCLC): 10.5 µM
TGI (HOP-92 NSCLC): 26.9 µM
GI50 (MCF7 breast): 3.74 µM
TGI (MCF7 breast): 20.2 µM
GI50 (SN12C renal): 14.7 µM
TGI (SN12C renal): 36 µM
GI50 (OVCAR-4 ovarian): 1620 nM
TGI (OVCAR-4 ovarian): 14.4 µM
GI50 (NCI/ADR-RES ovarian): 11.5 µM
TGI (NCI/ADR-RES ovarian): 27.5 µM
GI50 (OVCAR-5 ovarian): 3.68 µM
TGI (OVCAR-5 ovarian): 22.2 µM
GI50 (ACHN renal): 1290 nM
TGI (ACHN renal): 2550 nM
GI50 (CAKI-1 renal): 11.9 µM
TGI (CAKI-1 renal): 28.3 µM
GI50 (T-47D breast): 2270 nM
TGI (T-47D breast): 19.8 µM
GI50 (A498 renal): 12.6 µM
TGI (A498 renal): 35.4 µM
GI50 (OVCAR-8 ovarian): 11.7 µM
TGI (OVCAR-8 ovarian): 27.7 µM
GI50 (LOX IMVI melanoma): 6.41 µM
TGI (LOX IMVI melanoma): 19.7 µM
GI50 (UO-31 renal): 7.65 µM
TGI (UO-31 renal): 21.2 µM
GI50 (MDA-MB-435): 7.11 µM
TGI (MDA-MB-435): 22.1 µM
GI50 (MOLT-4 leukemia): 3.78 µM
TGI (MOLT-4 leukemia): > 100 µM
GI50 (IGROV1 ovarian): 5.05 µM
TGI (IGROV1 ovarian): 19.5 µM
GI50 (SNB-75 CNS): 1580 nM
TGI (SNB-75 CNS): 11.8 µM
GI50 (SF-539 CNS): 6.01 µM
TGI (SF-539 CNS): 21.1 µM
GI50 (CCRF-CEM leukemia): 3.1 µM
TGI (CCRF-CEM leukemia): 21.5 µM
GI50 (HT29 colon): 4.38 µM
TGI (HT29 colon): 19.6 µM
GI50 (SK-MEL-28 melanoma): 14 µM
TGI (SK-MEL-28 melanoma): 28.5 µM
GI50 (SF-268 CNS): 16.2 µM
TGI (SF-268 CNS): 51.7 µM
GI50 (HOP-62 NSCLC): 14.3 µM
TGI (HOP-62 NSCLC): 31.1 µM
GI50 (COLO 205 colon): 3.61 µM
TGI (COLO 205 colon): 17.5 µM
GI50 (KM12 colon): 7.14 µM
TGI (KM12 colon): 25.1 µM
GI50 (786-0 renal): 2540 nM
TGI (786-0 renal): 15.9 µM
GI50 (MALME-3M melanoma): 2870 nM
TGI (MALME-3M melanoma): 17.9 µM
GI50 (UACC-257 melanoma): 12.9 µM
TGI (UACC-257 melanoma): 27.7 µM
GI50 (SNB-19 CNS): 10.9 µM
TGI (SNB-19 CNS): 26.7 µM
GI50 (HCC-2998 colon): 15.5 µM
TGI (HCC-2998 colon): 29.5 µM
